Legend:
HS-PSS [1] = assay: relative IC50 (inflection point of fitted dose-response curve, CellTox-Green cytotoxicity, 72 h; top asymptote may be below 50%); higher = less potent
In short: (§1)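 For 72 h at 37 °C, MPNST cell lines and primary human Schwann cells were exposed in 384-well plates to five 10-fold compound dilutions. CellTox-Green, added before seeding at a final 1:1000 dilution, gave fluorescence from DNA released by disrupted cells. Signals were scaled to vehicle and positive-control wells, cultures failing plate quality control were left out, and four-parameter logistic fits were applied. Relative IC50 and drug sensitivity score were derived from the fits, with IC50 censored at the top concentration.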

STS26T [2] = assay: as above
In short: as §1

HS-PSS [3] = assay: relative IC50 (inflection point of fitted dose-response curve, CellTiter-Glo viability, 72 h; top asymptote may be below 50% inhibition); higher = less potent
In short: (§2)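 After seeding 750–1000 cells per well of MPNST cell lines or primary human Schwann cells into 384-well plates preprinted with each compound at five concentrations in 10-fold steps, plates were kept 72 h at 37 °C, 5% CO2. Viability was read as CellTiter-Glo ATP luminescence relative to vehicle and positive-control wells, with duplicates averaged where present. The data were fitted with four-parameter logistic models. Drug sensitivity score and relative IC50, censored at the top concentration, derive from the fits, and percent inhibition refers to the top concentration.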

HS-Sch-2 = assay: as above
In short: as §2

HSC1 [4] = assay: as above
In short: as §2

HSC2 [5] = assay: as above
In short: as §2

S462 = assay: as above
In short: as §2

ST8814 [6] = assay: as above
In short: as §2

STS26T [7] = assay: as above
In short: as §2

YST-1 = assay: as above
In short: as §2

HSC1 [8] = assay: relative IC50 (inflection point of fitted dose-response curve, CellTox-Green cytotoxicity, 72 h; top asymptote may be below 50%); higher = less potent
In short: as §1

ST8814 [9] = assay: as above
In short: as §1

HSC2 [10] = assay: as above
In short: as §1

S1507-2 = assay: relative IC50 (inflection point of fitted dose-response curve, CellTiter-Glo viability, 72 h; top asymptote may be below 50% inhibition); higher = less potent
In short: as §2

Structure (SMILES)	relative IC50 (HS-PSS [1])	relative IC50 (STS26T [2])	relative IC50 (HS-PSS [3])	relative IC50 (HS-Sch-2)	relative IC50 (HSC1 [4])	relative IC50 (HSC2 [5])	relative IC50 (S462)	relative IC50 (ST8814 [6])	relative IC50 (STS26T [7])	relative IC50 (YST-1)	relative IC50 (HSC1 [8])	relative IC50 (ST8814 [9])	relative IC50 (HSC2 [10])	relative IC50 (S1507-2)
CNC(=O)c1ccccc1Sc1ccc2c(/C=C/c3ccccn3)n[nH]c2c1 [Axitinib]	> 10 µM	1.38 µM	2.58 µM	1.7 µM	1.2 µM	0.694 µM	0.933 µM	1.36 µM	1.51 µM	0.972 µM				
Cc1c(N)nc([C@H](CC(N)=O)NC[C@H](N)C(N)=O)nc1C(=O)N[C@H](C(=O)N[C@H](C)[C@@H](O)[C@H](C)C(=O)N[C@H](C(=O)NCCc1nc(-c2nc(C(=O)NCCC[S+](C)C)cs2)cs1)[C@@H](C)O)[C@@H](O[C@@H]1O[C@@H](CO)[C@@H](O)[C@H](O)[C@@H]1O[C@H]1O[C@H](CO)[C@@H](O)[C@H](OC(N)=O)[C@@H]1O)c1c[nH]cn1 [Bleomycin]		0.328 µM	0.835 µM	0.923 µM	0.58 µM	0.284 µM	2.27 µM	1.62 µM	1.67 µM	0.594 µM	> 10 µM	2.85 µM		
Cc1ccc(-n2nc(C(C)(C)C)cc2NC(=O)Nc2ccc(OCCN3CCOCC3)c3ccccc23)cc1 [Doramapimod]		> 10 µM	1.64 µM	2.33 µM	3.01 µM	1.76 µM		> 10 µM	> 10 µM	0.667 µM	> 10 µM	> 10 µM	> 10 µM	> 10 µM
CNCc1ccc(-c2[nH]c3cc(F)cc4c3c2CCNC4=O)cc1 [Rucaparib]	> 10 µM	> 10 µM	1.04 µM		> 10 µM	> 10 µM		> 10 µM	> 10 µM	0.447 µM	> 10 µM	> 10 µM	> 10 µM	> 10 µM
COc1nc(N)nc2c1ncn2[C@@H]1O[C@H](CO)[C@@H](O)[C@@H]1O [Nelarabine]	> 10 µM	> 10 µM	> 10 µM	> 10 µM	> 10 µM	> 10 µM	> 10 µM	> 10 µM	> 10 µM	> 10 µM	> 10 µM	> 10 µM		
O=C(c1cc(Cc2n[nH]c(=O)c3ccccc23)ccc1F)N1CCN(C(=O)C2CC2)CC1 [Olaparib]	> 10 µM	3.43 µM		1.36 µM	1.67 µM	1.34 µM	2 µM	3.54 µM	2.33 µM	0.426 µM	> 10 µM	3.36 µM		
COc1cc2/c(=N/c3ccc(Br)cc3F)nc[nH]c2cc1OCC1CCN(C)CC1 [Vandetanib]		> 1 µM	0.0865 µM	> 1 µM	> 1 µM	> 1 µM	> 1 µM	> 1 µM		> 1 µM	> 1 µM		> 1 µM	
CCN1CCN(c2ccc(Nc3cc(N(C)C(=O)Nc4c(Cl)c(OC)cc(OC)c4Cl)ncn3)cc2)CC1 [NVP-BGJ398]	> 1 µM	> 1 µM	> 1 µM	> 1 µM	> 1 µM	> 1 µM	> 1 µM		> 1 µM	> 1 µM	> 1 µM	> 1 µM	> 1 µM	
Nc1nc2[nH]cnc2c(=S)[nH]1 [Thioguanine]	> 10 µM	2.92 µM	1.45 µM	1.12 µM		> 10 µM	1.2 µM	0.642 µM	0.717 µM	1.37 µM	> 10 µM		> 10 µM	2.27 µM
C[C@]12CC[C@@H]3c4ccc(O)cc4C[C@@H](CCCCCCCCC[S+]([O-])CCCC(F)(F)C(F)(F)F)[C@H]3[C@@H]1CC[C@@H]2O (stereo partly drawn) [Fulvestrant]	> 1 µM	> 1 µM		> 1 µM			> 1 µM	> 1 µM	> 1 µM	> 1 µM	> 1 µM	> 1 µM	> 1 µM	> 1 µM
CC1=C2C[C@H]3[C@@H](CC=C4C[C@@H](O)CC[C@@]43C)[C@@H]2CC[C@]12O[C@@H]1C[C@H](C)CN[C@H]1[C@H]2C [Cyclopamine]		> 10 µM			> 10 µM	> 10 µM	> 10 µM	> 10 µM	> 10 µM		> 10 µM	> 10 µM	> 10 µM	
COc1cc2c(NC3CCN(C(C)C)CC3)nc(C3CCCCC3)nc2cc1OCCCN1CCCC1 [UNC0638]	2.54 µM	3.39 µM	1.74 µM	2.27 µM			2.73 µM	2.64 µM	3.5 µM	2.87 µM		2.23 µM	> 10 µM	1.72 µM
CC/C(=C(\c1ccccc1)c1ccc(OCCN(C)C)cc1)c1ccccc1 [Tamoxifen]	> 10 µM		3.9 µM	2.3 µM		3.37 µM		3.34 µM		3.25 µM	> 10 µM	2.49 µM	> 10 µM	3.95 µM
CC(C)(C)Cn1c(N)nc2ccc(-c3[nH]c(C(C)(C)C)nc3-c3ccc(F)cc3)nc21 [Ralimetinib]	> 10 µM	> 10 µM	4.09 µM	3.33 µM	2.33 µM	0.474 µM		1.56 µM	2.92 µM	0.115 µM	> 10 µM	> 10 µM	> 10 µM	2.14 µM
Cc1cccc(-c2nn3c(c2-c2ccnc4ccc(C(N)=O)cc24)CCC3)n1 [Galunisertib]	> 1 µM	> 1 µM	> 1 µM	> 1 µM	> 1 µM			> 1 µM		> 1 µM	> 1 µM	> 1 µM	> 1 µM	> 1 µM
CC[C@@H]1C(=O)OC[C@@H]1Cc1cncn1C [Pilocarpine]	> 40 µM	> 40 µM	> 40 µM		> 40 µM	> 40 µM	> 40 µM	> 40 µM	> 40 µM	> 40 µM	> 40 µM	> 40 µM	> 40 µM	

Structure (SMILES)	relative IC50 (HS-PSS [1])	relative IC50 (STS26T [2])	relative IC50 (HS-PSS [3])	relative IC50 (HS-Sch-2)	relative IC50 (HSC1 [4])	relative IC50 (HSC2 [5])	relative IC50 (S462)	relative IC50 (ST8814 [6])	relative IC50 (STS26T [7])	relative IC50 (YST-1)	relative IC50 (HSC1 [8])	relative IC50 (ST8814 [9])	relative IC50 (HSC2 [10])	relative IC50 (S1507-2)
COc1ccc(C2=N[C@@H](c3ccc(Cl)cc3)[C@@H](c3ccc(Cl)cc3)N2C(=O)N2CCNC(=O)C2)c(OC(C)C)c1 [Nutlin-3]	> 10 µM	> 10 µM		> 10 µM	1.49 µM	1.22 µM	> 10 µM	2.05 µM		1.41 µM	> 10 µM		> 10 µM	
O=C(c1ccc(OCCN2CCCCC2)cc1)c1c(-c2ccc(O)cc2)sc2cc(O)ccc12 [Raloxifene]		3.8 µM	1.13 µM	1.81 µM	3.1 µM	1.84 µM		2.94 µM	3.28 µM	1.82 µM	> 10 µM	3.43 µM	> 10 µM	3.1 µM
Cc1cnc(NC(=O)Nc2cc(Br)c(C)cc2OC[C@@H]2CNCCO2)cn1 [Rabusertib]	> 1 µM	0.33 µM		0.302 µM			0.319 µM	> 1 µM	0.189 µM	0.242 µM		> 1 µM	> 1 µM	0.236 µM
Cn1cnc(-c2cc3nccc(Oc4ccc(NC(=S)NC(=O)Cc5ccccc5)cc4F)c3s2)c1 [MGCD-265]	> 10 µM	> 10 µM		1.73 µM			2.1 µM	0.439 µM			> 10 µM			0.501 µM
CN(C)C(=N)NC(=N)N [Metformin aq]		> 100 µM			> 100 µM	> 100 µM		> 100 µM	> 100 µM		> 100 µM	> 100 µM	> 100 µM	> 100 µM
Cc1cnc(Nc2ccc(F)cc2Cl)nc1-c1c[nH]c(C(=O)N[C@H](CO)c2cccc(Cl)c2)c1 [VX-11E]	> 2.5 µM	0.896 µM	0.756 µM	0.367 µM	0.75 µM	0.696 µM		0.905 µM	0.83 µM	> 2.5 µM	0.874 µM	0.816 µM	0.651 µM	0.966 µM
Cc1c(C(=O)Nc2ccc(N3C[C@@H](C)O[C@@H](C)C3)nc2)cccc1-c1ccc(OC(F)(F)F)cc1 [Erismodegib]		> 10 µM			> 10 µM	> 10 µM	> 10 µM	> 10 µM				> 10 µM		
CC(C)C[C@@H](C(=O)N[C@H](C(=O)OC1CCCC1)c1ccccc1)[C@H](O)C(=O)NO [Tosedostat]	> 10 µM	0.0253 µM	3.27 µM	0.258 µM	0.138 µM	0.0761 µM	0.424 µM	1.24 µM	0.0814 µM	0.222 µM	> 10 µM		> 10 µM	
Cc1ccc(NC(=O)c2ccc(CN3CCN(C)CC3)cc2)cc1Nc1nccc(-c2cccnc2)n1 [Imatinib]		> 10 µM	2.38 µM	3.19 µM	> 10 µM	> 10 µM		3.53 µM		1.95 µM	> 10 µM	3.58 µM	> 10 µM	1.96 µM
Oc1nc(-c2ccc(C(F)(F)F)cc2)nc2c1CSCC2 [XAV-939]	> 10 µM			> 10 µM	0.286 µM	0.314 µM	> 10 µM	> 10 µM			> 10 µM	> 10 µM	> 10 µM	1.58 µM
O=C(O)CC[C@H]1CC[C@@](c2cc(F)ccc2F)(S(=O)(=O)c2ccc(Cl)cc2)CC1 [MK-0752]	> 1 µM	> 1 µM	> 1 µM				> 1 µM	> 1 µM	> 1 µM	> 1 µM	> 1 µM	> 1 µM	> 1 µM	> 1 µM
COc1cc(Nc2ncc(F)c(Nc3ccc4c(n3)NC(=O)C(C)(C)O4)n2)cc(OC)c1OC [Tamatinib]	> 10 µM		> 10 µM		0.665 µM	1.59 µM	> 10 µM			> 10 µM	> 10 µM			> 10 µM
CC(C)N(CCCNC(=O)Nc1ccc(C(C)(C)C)cc1)C[C@H]1O[C@@H](n2cc(Br)c3c(N)ncnc32)[C@H](O)[C@@H]1O [SGC0946]	2.49 µM	> 10 µM	1.94 µM	3 µM				3.45 µM	> 10 µM	3.67 µM	> 10 µM	3.07 µM	> 10 µM	2.09 µM
CN(C)C/C=C/C(=O)Nc1cc2c(Nc3ccc(F)c(Cl)c3)ncnc2cc1O[C@H]1CCOC1 [Afatinib]	> 1 µM	> 1 µM	0.148 µM		> 1 µM	> 1 µM	> 1 µM	> 1 µM	> 1 µM	> 1 µM	> 1 µM	> 1 µM	> 1 µM	
CN(C)/N=N/c1[nH]cnc1C(N)=O [Dacarbazine]	> 10 µM	> 10 µM	> 10 µM	> 10 µM	> 10 µM	> 10 µM		> 10 µM		> 10 µM	> 10 µM	> 10 µM	> 10 µM	> 10 µM

Source: the supplement of paper PMC5579334
